Drawing on US20200165257A1, “INHIBITORS OF PHOSPHOINOSITIDE 3-KINASE AND HISTONE DEACETYLASE FOR TREATMENT OF CANCER” (THE UNITED STATES OF AMERICA, AS REPRESENTED BY THE …, priority 2017, published 2020), this text covers inhibition and IC50 for one compound.

One assay relates to Leukemia Cell Line SR. Put plainly: cells. The assay is classed as cell-based. The conditions noted are these: Homo sapiens; SR; single dose, 10 uM compound concentration; read-out: inhibition of proliferation.
The next assay concerns the target T1, HDAC6 (Homo sapiens, UniProt Q9UBN7).
T1 sequence (Q9UBN7 1-1215): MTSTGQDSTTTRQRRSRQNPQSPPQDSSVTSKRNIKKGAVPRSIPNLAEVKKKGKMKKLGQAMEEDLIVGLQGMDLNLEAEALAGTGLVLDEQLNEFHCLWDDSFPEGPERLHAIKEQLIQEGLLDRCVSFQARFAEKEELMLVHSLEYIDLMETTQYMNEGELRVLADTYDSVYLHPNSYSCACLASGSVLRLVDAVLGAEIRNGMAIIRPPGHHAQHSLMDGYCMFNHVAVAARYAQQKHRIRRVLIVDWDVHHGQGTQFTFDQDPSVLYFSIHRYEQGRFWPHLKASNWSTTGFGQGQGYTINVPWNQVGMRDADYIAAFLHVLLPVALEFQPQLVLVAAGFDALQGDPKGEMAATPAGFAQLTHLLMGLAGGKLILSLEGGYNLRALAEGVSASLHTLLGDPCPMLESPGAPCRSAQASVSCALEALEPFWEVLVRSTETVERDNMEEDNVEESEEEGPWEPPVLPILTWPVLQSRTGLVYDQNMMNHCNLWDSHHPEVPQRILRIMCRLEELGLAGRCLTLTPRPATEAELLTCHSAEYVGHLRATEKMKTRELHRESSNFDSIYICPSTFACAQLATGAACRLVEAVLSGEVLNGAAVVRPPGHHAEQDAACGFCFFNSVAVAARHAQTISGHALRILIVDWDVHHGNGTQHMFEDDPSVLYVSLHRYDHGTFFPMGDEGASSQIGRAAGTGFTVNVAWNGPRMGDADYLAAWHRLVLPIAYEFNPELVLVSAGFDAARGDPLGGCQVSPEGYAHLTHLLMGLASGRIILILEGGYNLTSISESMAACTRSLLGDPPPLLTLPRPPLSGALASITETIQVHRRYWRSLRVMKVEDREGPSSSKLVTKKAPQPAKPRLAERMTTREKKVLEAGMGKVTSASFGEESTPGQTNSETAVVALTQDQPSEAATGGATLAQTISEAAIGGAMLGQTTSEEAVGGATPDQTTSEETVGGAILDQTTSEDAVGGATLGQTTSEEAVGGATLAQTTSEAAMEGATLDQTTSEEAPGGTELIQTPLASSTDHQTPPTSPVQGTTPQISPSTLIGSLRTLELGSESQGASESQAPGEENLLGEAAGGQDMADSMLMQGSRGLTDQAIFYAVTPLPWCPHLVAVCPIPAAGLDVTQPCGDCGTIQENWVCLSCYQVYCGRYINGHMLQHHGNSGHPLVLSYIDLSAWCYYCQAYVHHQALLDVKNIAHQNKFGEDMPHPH
Put plainly: HDAC Fluorescent Activity Assay. The conditions noted are these: symbols ++ / +; read-out: HDAC6 Inhibition Activity (IC50 class). The assay is classed as biochemical.

A further assay deals with Leukemia Cell Line K-562. The format is cell-based. The conditions noted are these: Homo sapiens, K562; K-562; single dose, 10 uM compound concentration; read-out: inhibition of proliferation.
Assay [1] concerns Breast Cancer Cell Line MDA-MB-468. Put plainly: cells. The conditions noted are these: Homo sapiens, MDA-MB-468, read-out: inhibition of proliferation.
Assay [2] has as its system Ovarian Cell Line OVCAR-3. Briefly: cells. The conditions noted are these: Homo sapiens, OVCAR-3, read-out: inhibition of proliferation.
Assay [3] deals with Breast Cancer Cell Line BT-549. Put plainly: cells. The format is cell-based. The conditions noted are these: Homo sapiens; BT-549; single dose, 10 uM compound concentration; read-out: inhibition of proliferation.
Assay [4] relates to Leukemia Cell Line MOLT-4. The format is cell-based. The conditions noted are these: Homo sapiens; MOLT-4; single dose, 10 uM compound concentration; read-out: inhibition of proliferation.
Assay [5] relates to Leukemia Cell Line HL-60(TB). The format is cell-based. The conditions noted are these: Homo sapiens; HL-60(TB); single dose, 10 uM compound concentration; read-out: inhibition of proliferation.
Assay [6] deals with Ovarian Cell Line OVCAR-8. Put plainly: cells. The assay is classed as cell-based. The conditions noted are these: Homo sapiens; OVCAR-8; single dose, 10 uM compound concentration; read-out: inhibition of proliferation.

A value given as a limit tells only on which side of the number the result lay.

By IC50 is commonly meant the concentration that inhibits the measured activity by half. Take `CC[C@H](Nc1nc(N)nc(C)c1C#N)c1nc2cccc(CN(C)c3ncc(C(=O)NO)cn3)c2c(=O)n1-c1ccccc1` [LII, (S)-2-(((2-(1-((2-amino-5-cyano-6-methylpyrimidin-4-yl)amino)propyl)-4-oxo-3-phenyl-3,4-dihydroquinazolin-5-yl)methyl)(methyl)amino)-N-hydroxypyrimidine-5-carboxamide]: the inhibition at 10 µM (in the assay on Leukemia Cell Line SR; in the assay on Leukemia Cell Line K-562; in assay [1]; in [2]; in assay [3]; in [4]) was greater than 50% throughout. For the same compound, the inhibition at 10 µM in assay [5] and in [6] was greater than 50% in each case. The IC50 on HDAC6 was less than 100 nM.
